From US12692235B2, “Fused ring compound and application thereof” (WUHAN LL SCIENCE AND TECHNOLOGY DEVELOPMENT CO., LTD., priority 2019, dated 2026)

Target: T1, hP2X4 (human purinergic P2X receptor subtype 4) (Homo sapiens, UniProt Q99571)
T1 sequence (Q99571 1-404 isoform Q99571-2): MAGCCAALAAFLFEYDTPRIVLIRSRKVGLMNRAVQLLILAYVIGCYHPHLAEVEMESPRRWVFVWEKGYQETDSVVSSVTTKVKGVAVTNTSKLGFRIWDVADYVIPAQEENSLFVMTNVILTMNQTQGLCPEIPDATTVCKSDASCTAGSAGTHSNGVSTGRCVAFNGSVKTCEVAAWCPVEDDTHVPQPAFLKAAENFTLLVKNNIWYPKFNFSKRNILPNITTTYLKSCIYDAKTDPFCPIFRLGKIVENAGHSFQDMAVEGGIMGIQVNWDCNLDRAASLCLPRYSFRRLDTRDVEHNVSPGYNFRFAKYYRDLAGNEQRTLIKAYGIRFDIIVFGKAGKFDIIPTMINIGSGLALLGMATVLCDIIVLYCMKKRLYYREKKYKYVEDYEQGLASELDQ
Conditions: P2X4 IC50 (nM), HEK293 cells stably expressing hP2X4; agonist BZ-ATP 2.5 μM; FLIPR calcium
Experimental: Cells at 400,000 cells/mL were seeded into a 384-well plate (10,000 cells/well) 18-24 h prior to the FLIPR experiment and then incubated overnight in a cell incubator. […] Each well was added with 20 μL of 0.5×Calcium 6 fluorescent dye (Molecular Devices, R8190) and then the cells were subjected to dye-loading incubation at 37° C. for 1.5 h. Each well was added with 10 μL of respective test compound (dissolved in DMSO at a concentration of 10 mM and serially diluted with buffer) or vehicle and the mixture was equilibrated for 30 min at room temperature.

SMILES	IC50 [nM]
Nc1ncc2c(S(N)(=O)=O)cc(NC(=O)Cc3ccccc3Cl)cc2n1 [Compound 39, N-(2-amino-5-sulfamoylquinazolin-7-yl)-2-(2-chlorophenyl)acetamide]	200 to 5000
NS(=O)(=O)c1cc(NC(=O)Cc2ccccc2Cl)cc2cncnc12 [Compound 40, 2-(2-chlorophenyl)-N-(8-sulfamoylquinazolin-6-yl)acetamide]	50 to 200
NS(=O)(=O)c1cc(NC(=O)Cc2ccccc2Cl)cc2ccnnc12 [Compound 41, 2-(2-chlorophenyl)-N-(8-sulfamoylcinnolin-6-yl)acetamide]	50 to 200
N#Cc1ccc2cc(NC(=O)Cc3ccccc3Cl)cc(S(N)(=O)=O)c2c1 [Compound 42, 2-(2-chlorophenyl)-N-(6-cyano-4-sulfamoylnaphthalen-2-yl)acetamide]	10 to 50
N#Cc1nccc2c(S(N)(=O)=O)cc(NC(=O)Cc3ccccc3Cl)cc12 [Compound 44, 2-(2-chlorophenyl)-N-(1-cyano-5-sulfamoylisoquinolin-7-yl)acetamide]	200 to 5000
NS(=O)(=O)c1cc(NC(=O)Cc2ccccc2Cl)cc2c(F)cncc12 [Compound 47, 2-(2-chlorophenyl)-N-(4-fluoro-8-sulfamoylisoquinolin-6-yl)acetamide]	50 to 200
NS(=O)(=O)c1cc(NC(=O)Cc2ccccc2Cl)cc2c(Cl)cncc12 [Compound 48, N-(4-chloro-8-sulfamoylisoquinolin-6-yl)-2-(2-chlorophenyl)acetamide]	200 to 5000
NS(=O)(=O)c1cc(NC(=O)Cc2ccccc2Cl)cc2cc(-n3ccnc3)ncc12 [Compound 50, N-(3-(1H-imidazol-1-yl)-8-sulfamoylisoquinolin-6-yl)-2-(2-chlorophenyl)acetamide]	200 to 5000
NS(=O)(=O)c1cc(NC(=O)Cc2ccccc2Cl)cc2c(Nc3ccc(F)cc3)nccc12 [Compound 52, 2-(2-chlorophenyl)-N-(1-((4-fluorophenyl)amino)-5-sulfamoylisoquinolin-7-yl)acetamide]	200 to 5000
COc1nccc2c(S(C)(=N)=O)cc(NC(=O)Cc3ccccc3Cl)cc12 (stereo not drawn) [Compound 53, 2-(2-chlorophenyl)-N-(1-methoxy-5-(S-methylsulfonimidoyl)isoquinolin-7-yl)acetamide]	200 to 5000
Cc1nccc2c(S(N)(=O)=O)cc(NC(=O)Cc3ccccc3Cl)cc12 [Compound 55]	50 to 200
NS(=O)(=O)c1cc(NC(=O)Cc2ccccc2Cl)cc2c(CF)nccc12 [Compound 56]	50 to 200
NS(=O)(=O)c1cc(NC(=O)Cc2ccccc2Cl)cc2nc(Cl)ccc12 [Compound 57]	50 to 200
COc1ccc2c(S(N)(=O)=O)cc(NC(=O)Cc3ccccc3Cl)cc2n1 [Compound 58, 2-(2-chlorophenyl)-N-(2-methoxy-5-sulfamoylquinolin-7-yl)acetamide]	50 to 200
NS(=O)(=O)c1cc(NC(=O)Cc2ccccc2Cl)cc2cc(Cl)ncc12 [Compound 59, N-(3-chloro-8-sulfamoylisoquinolin-6-yl)-2-(2-chlorophenyl)acetamide]	50 to 200
NS(=O)(=O)c1cc(NC(=O)Cc2ccccc2Cl)cc2c(OCF)nccc12 [Compound 61, 2-(2-chlorophenyl)-N-(1-(fluoromethoxy)-5-sulfamoylisoquinolin-7-yl)acetamide]	50 to 200
COc1nccc2c(S(N)(=O)=O)cc(NC(=O)Cc3c(Cl)ccc(F)c3O)cc12 [Compound 63, 2-(6-chloro-3-fluoro-2-hydroxyphenyl)-N-(1-methoxy-5-sulfamoylisoquinolin-7-yl)acetamide]	200 to 5000
CN1CCN(c2ccc3c(S(N)(=O)=O)cc(NC(=O)Cc4ccccc4Cl)cc3n2)CC1=O [Compound 70, 2-(2-chlorophenyl)-N-(2-(4-methyl-3-carbonylpiperazin-1-yl)-5-sulfamoylquinolin-7-yl)acetamide]	50 to 200
COc1ccc(Oc2ccc3c(S(N)(=O)=O)cc(NC(=O)Cc4ccccc4Cl)cc3n2)cc1 [Compound 72, 2-(2-chlorophenyl)-N-(2-(4-methoxyphenoxy)-5-sulfamoylquinolin-7-yl)acetamide]	50 to 200
COCCOc1ccc2c(S(N)(=O)=O)cc(NC(=O)Cc3ccccc3Cl)cc2n1 [Compound 74, 2-(2-chlorophenyl)-N-(2-(2-methoxyethoxy)-5-sulfamoylquinolin-7-yl)acetamide]	50 to 200
NS(=O)(=O)c1cc(NC(=O)Cc2ccccc2Cl)cc2cnc(N3CCCCC3)cc12 [Compound 77, 2-(2-chlorophenyl)-N-(3-(piperidin-1-yl)-5-sulfamoylisoquinolin-7-yl)acetamide]	50 to 200
NS(=O)(=O)c1cc(NC(=O)Cc2ccccc2Cl)cc2cnc(N3CCOCC3)cc12 [Compound 78, 2-(2-chlorophenyl)-N-(3-morpholino-5-sulfamoylisoquinolin-7-yl)acetamide]	50 to 200

The remaining lines, values ahead:

IC50 [nM]	SMILES
10 to 50	COc1ccc(Oc2nccc3c(S(N)(=O)=O)cc(NC(=O)Cc4ccccc4Cl)cc23)cc1 [Compound 35, 2-(2-chlorophenyl)-N-(1-(4-methoxyphenoxy)-5-sulfamoylisoquinolin-7-yl)acetamide]
10 to 50	NS(=O)(=O)c1cc(NC(=O)Cc2ccccc2Cl)cc2cccnc12 [Compound 37, 2-(2-chlorophenyl)-N-(8-sulfamoylquinolin-6-yl)acetamide]
50 to 200	NS(=O)(=O)c1cc(NC(=O)Cc2ccccc2Cl)cc2ccc(F)nc12 [Compound 38, 2-(2-chlorophenyl)-N-(2-fluoro-8-sulfamoylquinolin-6-yl)acetamide]
200 to 5000	NS(=O)(=O)c1cc(NC(=O)Cc2ccccc2Cl)cc2c(=O)[nH]ccc12 [Compound 43, 2-(2-chlorophenyl)-N-(1-oxo-5-sulfamoyl-1,2-dihydroisoquinolin-7-yl)acetamide]
50 to 200	NS(=O)(=O)c1cc(NC(=O)Cc2ccccc2Cl)cc2ccncc12 [Compound 45, 2-(2-chlorophenyl)-N-(8-sulfamoylisoquinolin-6-yl)acetamide]
200 to 5000	COC(=O)N1CCCc2c1cc(NC(=O)Cc1ccccc1Cl)cc2S(N)(=O)=O [Compound 46, methyl 7-(2-(2-chlorophenyl)acetamido)-5-sulfamoyl-3,4-dihydroquinoline-1(2H)-carboxylate]
50 to 200	NS(=O)(=O)c1cc(NC(=O)Cc2ccccc2Cl)cc2nc(-n3cccn3)ccc12 [Compound 49, N-(2-(1H-pyrazol-1-yl)-5-sulfamoylquinolin-7-yl)-2-(2-chlorophenyl)acetamide]
200 to 5000	Nc1nccc2c(S(N)(=O)=O)cc(NC(=O)Cc3ccccc3Cl)cc12 [Compound 51, N-(1-amino-5-sulfamoylisoquinolin-7-yl)-2-(2-chlorophenyl)acetamide]
200 to 5000	COc1nccc2c(S(N)(=O)=O)cc(NC(=O)Cc3c(Cl)ccc(F)c3F)cc12 [Compound 54, 2-(6-chloro-2,3-difluorophenyl)-N-(1-methoxy-5-sulfamoylisoquinolin-7-yl)acetamide]
50 to 200	NS(=O)(=O)c1cc(NC(=O)Cc2ccccc2Cl)cc2c(OC(F)(F)F)nccc12 [Compound 60, 2-(2-chlorophenyl)-N-(5-sulfamoyl-1-(trifluoromethoxy)isoquinolin-7-yl)acetamide]
200 to 5000	COc1nccc2c(S(N)(=O)=O)cc(NC(=O)Cc3c(O)cccc3Cl)cc12 [Compound 62, 2-(2-chloro-6-hydroxyphenyl)-N-(1-methoxy-5-sulfamoylisoquinolin-7-yl)acetamide]
200 to 5000	COc1nccc2c(S(N)(=O)=O)cc(NC(=O)Cc3ccccc3C#N)cc12 [Compound 64, 2-(2-cyanophenyl)-N-(1-methoxy-5-sulfamoylisoquinolin-7-yl)acetamide]
10 to 50	COc1ccc2c(S(N)(=O)=O)cc(NC(=O)Cc3ccccc3Cl)cc2n1 [Compound 65, 2-(2-chlorophenyl)-N-(2-methoxy-5-sulfamoylquinolin-7-yl)acetamide]
50 to 200	NS(=O)(=O)c1cc(NC(=O)Cc2ccccc2Cl)cc2nc(OCCO)ccc12 [Compound 66, 2-(2-chlorophenyl)-N-(2-(2-hydroxyethoxy)-5-sulfamoylquinolin-7-yl)acetamide]
200 to 5000	NS(=O)(=O)c1cc(NC(=O)Cc2ccccc2Cl)cc2nc(N3CCCCC3)ccc12 [Compound 67, 2-(2-chlorophenyl)-N-(2-(piperidin-1-yl)-5-sulfamoylquinolin-7-yl)acetamide]
50 to 200	NS(=O)(=O)c1cc(NC(=O)Cc2ccccc2Cl)cc2nc(N3CCOCC3)ccc12 [Compound 68, 2-(2-chlorophenyl)-N-(2-morpholino-5-sulfamoylquinolin-7-yl)acetamide]
200 to 5000	CN1CCN(c2ccc3c(S(N)(=O)=O)cc(NC(=O)Cc4ccccc4Cl)cc3n2)CC1 [Compound 69, 2-(2-chlorophenyl)-N-(2-(4-methylpiperazin-1-yl)-5-sulfamoylquinolin-7-yl)acetamide]
200 to 5000	CC(C)Nc1ccc2c(S(N)(=O)=O)cc(NC(=O)Cc3ccccc3Cl)cc2n1 [Compound 73, 2-(2-chlorophenyl)-N-(2-(isopropylamino)-5-sulfamoylquinolin-7-yl)acetamide]
50 to 200	COc1cc2c(S(N)(=O)=O)cc(NC(=O)Cc3ccccc3Cl)cc2cn1 [Compound 75, 2-(2-chlorophenyl)-N-(3-methoxy-5-sulfamoylisoquinolin-7-yl)acetamide]
50 to 200	NS(=O)(=O)c1cc(NC(=O)Cc2ccccc2Cl)cc2cnc(OCCO)cc12 [Compound 76, 2-(2-chlorophenyl)-N-(3-(2-hydroxyethoxy)-5-sulfamoylisoquinolin-7-yl)acetamide]
